Legend:
lymphome L5178Y = assay: Antitumour activity in the L5178Y lymphoma model, survival; format: in vivo; conditions: days 1,2,3,4,5; for Nombre d'animaux survivants: at 120 days
From the text: L'activité antitumorale du DAH a été aussi étudiée sur deux autres modèles murins : le lymphome L5178Y et la leucémie P388.
Les cellules de lymphome murin (L5178Y) sont maintenues par passages intrapéritonéaux successifs chez la souris DBA/2 et injectées, pour les essais, à la dose de […] par souris.

[1] = test system: lymphocytes infectés par le virus du SIDA; assay: Growth and cell mortality of HIV-infected lymphocytes; format: cell-based; conditions: 0,5-2 mM DAH; compared with uninfected lymphocytes
From the text: (§1) Cette inhibition est dose-dépendante. Les essais ont d'abord porté sur des lymphoytes de donneurs sains (Figures 1 et 2). On a pu mettre en évidence cette activité sur deux modèles de réplication du HIV : a) lymphocytes normaux infectés par le virus purifié et b) coculture des lymphocytes des malades du SIDA et de lymphocytes normaux. On a mesuré l'activité transcriptase inverse pendant 22 jours dans le surnageant de cultures cellulaires comme critère de prolifération virale. Le traitement avec le DAH a duré 72 heures de J₀ à J₃ de la manipulation (Figures 3, 4 et 5). […] Par contre, le DAH s'est montré plus toxique vis-à-vis des lymphocytes infectés par le virus du SIDA (Figures 6 et 7).
Effet du DAH sur le taux de croissance de lymphocytes infectés.
(●) absence de DAH (o) concentration en DAH = 0,5 mM (□) concentration en DAH = 1 mM (△) concentration en DAH = 1,5 mM (◇) concentration en DAH = 2 mM • . En abscisses : temps de culture (en jours) • . En ordonnées : taux de croissance.
Effet du DAH sur la mortalité cellulaire de lymphocytes infectés.
(●) absence de DAH (o) concentration en DAH = 0,5 mM (□) concentration en DAH = 1 mM (△) concentration en DAH = 1,5 mM (◇) concentration en DAH = 2 mM • . En abscisses : temps de culture (en jours) • . En ordonnées : proportion de cellules mortes (en %).

[2] = molecular target: T1, transcriptase inverse (RT) du FLV (Friend murine leukemia virus, UniProt P26810); assay: Reverse transcriptase (RT) activity of highly purified FLV, poly A-oligo dT substrate; format: biochemical; conditions: at concentrations giving the anti-retroviral effect in cell culture
T1 construct: comme source de RT une préparation de FLV hautement purifié; from tissue; host or cells: highly purified FLV virus preparation (virions)
From the text: La transcriptase inverse étant la cible de divers agents anti-rétroviraux, il est intéressant de tester l'effet du DAH sur l'activité transcriptase inverse (RT) du FLV. Cet essai a été effectué en utilisant comme source de RT une préparation de FLV hautement purifié, et comme substrat du poly A-oligo dT. Les substrats ont été introduits dans le milieu réactionnel dans l'ordre suivant : DAH aux concentrations désirées, virus purifié, polyA-oligo dT, dTTP + ³HdTTP.

[3] = Stability of DAH versus pH and temperature over one month (colorimetric assay of the hydroxamate function); format: physicochemical; conditions: for Pourcentage de dégradation du DAH sur une période de 30 jours: 30 days
Experimental: La fonction hydroxamate du DAH est mise en évidence par un complexe Fe3+-hydroxamate qui donne une coloration rouge-violet, quantifiée par méthode colorimétrique à 550 nm, à l'aide d'un spectrophotomètre de type Beckman DU 70.
La stabilité du DAH en fonction du pH et de la température a été déterminée sur une durée d'un mois par dosage colorimétrique spécifique de la fonction hydroxamate. Les résultats du tableau ci-après montrent que dans l'eau le DAH est stable jusqu'à une température de 50°C. Une dégradation significative du produit n'est constatée que dans des conditions extrêmes de pH, comme l'illustre le Tableau 1 ci-après. Tableau 1

[4] = LD50 comparison of DAH and LAH; conditions: in vivo
HIV = HIV replication in lymphocyte cultures (infected with purified virus, or coculture of AIDS patients' and normal lymphocytes), reverse transcriptase activity in supernatant; format: cell-based; conditions: DAH treatment 72 h (J0 to J3), RT followed 22 days; dose-dependent; 0,5-2 mM
From the text: as §1
Effet du traitement par le DAH durant trois jours sur la production de transcriptase inverse virale par une coculture de lymphocytes des malades du SIDA et de lymphocytes normaux.
(●) absence de DAH (témoin) (o) concentration en DAH = 1 mM (□) concentration en DAH = 1,5 mM • . En abscisses : temps de croissance des cultures après inoculation du DAH (en jours) • . En ordonnées : activité transcriptase inverse (en CPM/million de cellules)
Effet du traitement par le DAH durant trois jours, sur la production de transcriptase inverse virale d'une culture de lymphocytes infectés par du virus purifié. […]

leucémie L1210 = assay: Antitumour activity in the L1210 leukaemia model, survival; format: in vivo, souris B6D2F1/J; conditions: for Nombre d'animaux survivants: at 30 days
From the text: L'activité antitumorale du DAH et du LAH a été étudiée sur le modèle de leucémie L1210. Les cellules leucémiques L1210 sont maintenues par passages intrapéritonéaux dans la souris B6D2F1/J mâle. […] La durée d'observation est de 30 jours.

**Q.** Which T/Cx100 (lymphome L5178Y; 1 g/kg x 3/j) does the source give for N[C@@H](CC(=O)NO)C(=O)O [DAH, D-acide aspartique β-hydroxamate] here?
**A.** 576%

**Q.** What about the “Nombre d'animaux survivants” value (lymphome L5178Y; 1 g/kg x 3/j) of the same molecule?
**A.** 5/5

**Q.** What about the T/Cx100 (lymphome L5178Y; 1 g/kg x 4/j) of the same molecule?
**A.** 576%

**Q.** And the “Nombre d'animaux survivants” value (lymphome L5178Y; 1 g/kg x 4/j)?
**A.** 5/5

**Q.** And the “toxicité vis-à-vis des lymphocytes infectés par le virus du SIDA” value [1]?
**A.** plus toxique

**Q.** And the “effet sur l'activité RT” value [2]?
**A.** aucun effet

**Q.** What about the “Pourcentage de dégradation du DAH sur une période de 30 jours” value ([3]; HCl 0,1 N, + 4 °C) of the same molecule?
**A.** 42%

**Q.** And the “Pourcentage de dégradation du DAH sur une période de 30 jours” value ([3]; HCl 0,1 N, + 25 °C)?
**A.** 78%

**Q.** What about the “Pourcentage de dégradation du DAH sur une période de 30 jours” value ([3]; HCl 0,1 N, + 50 °C) of the same molecule?
**A.** 100%

**Q.** And the “Pourcentage de dégradation du DAH sur une période de 30 jours” value ([3]; H₂O, + 4 °C)?
**A.** 0%

**Q.** And the “Pourcentage de dégradation du DAH sur une période de 30 jours” value ([3]; H₂O, + 25 °C)?
**A.** 0%

**Q.** What about the “Pourcentage de dégradation du DAH sur une période de 30 jours” value ([3]; H₂O, + 50 °C) of the same molecule?
**A.** 0%

**Q.** What about the “Pourcentage de dégradation du DAH sur une période de 30 jours” value ([3]; NaOH 0,1 N, + 4 °C) of the same molecule?
**A.** 4%

**Q.** And the “Pourcentage de dégradation du DAH sur une période de 30 jours” value ([3]; NaOH 0,1 N, + 25 °C)?
**A.** 36%

**Q.** And the “Pourcentage de dégradation du DAH sur une période de 30 jours” value ([3]; NaOH 0,1 N, + 50 °C)?
**A.** 100%

**Q.** And the “Stabilité du DAH” value ([3]; in water, up to 50°C, one month)?
**A.** stable

**Q.** What about the “DL 50 %” value [4] of the same molecule?
**A.** 10 g/kg

**Q.** What about the “multiplication virale du HIV (activité transcriptase inverse)” value (HIV) of the same molecule?
**A.** inhibe de manière totale

**Q.** What about the T/Cx100 (leucémie L1210; 0,5 g/kg x4/j, days 1,2,3) of the same molecule?
**A.** 113%

**Q.** And the “Nombre d'animaux survivants” value (leucémie L1210; 0,5 g/kg x4/j, days 1,2,3)?
**A.** 0/5

**Q.** What about the T/Cx100 (leucémie L1210; 1,5 g/kg x4/j, days 1,2,3) of the same molecule?
**A.** 276%

**Q.** And the T/Cx100 (leucémie L1210; 1,5 g/kg x4/j, days 1,2,3,4)?
**A.** 347%

**Q.** What about the “Nombre d'animaux survivants” value (leucémie L1210; 1,5 g/kg x4/j, days 1,2,3,4) of the same molecule?
**A.** 3/5

**Q.** And the “Nombre d'animaux survivants” value (leucémie L1210; 1,5 g/kg x4/j, days 1,2,3)?
**A.** 0/5

**Q.** What about the T/Cx100 (leucémie L1210; 1 g/kg x3/j, days 1-10) of the same molecule?
**A.** 347%

**Q.** What about the “Nombre d'animaux survivants” value (leucémie L1210; 1 g/kg x3/j, days 1-10) of the same molecule?
**A.** 3/5

**Q.** And the T/Cx100 (leucémie L1210; 1 g/kg x4/j, days 1,2,3)?
**A.** 171%

**Q.** And the “Nombre d'animaux survivants” value (leucémie L1210; 1 g/kg x4/j, days 1,2,3)?
**A.** 0/5

**Q.** And the “survie des animaux traités” value (leucémie L1210; 1 g/kg, 4 times a day for 3 days)?
**A.** prolongation très significative de la survie

**Q.** And the activité antitumorale (leucémie L1210; dose of 1 g/kg or more, 3 or 4 times a day)?
**A.** activité antitumorale significative
